Columns and labels:
[1] = system: HL60 human promyelocytic leukemia cells; experiment: HL60 cell growth inhibition (trypan blue cell counts); assay type: cell-based
Procedure: Note that all structures shown herein are drawn in their Z-isoform and some bonds have been standardized. IC50's here, as well as below for in FIGS. 2 and 3, were calculated based upon dose-response profiles on day 5 following the addition of each compound.
HL60 human promyelocytic leukemia cells were grown in RPMI medium supplemented with 10% fetal calf serum, 100 U/ml penicillin G, and 100 μg/ml streptomycin (all from Mediatech, Inc., Herndon, Va.). Rat fibroblast lines were grown under similar conditions in Dulbecco's modified minimal essential medium. To determine the effects of Myc-Max compounds on HL60 cell growth, logarithmically growing cells (>90% viability) were resuspended in fresh medium. Four (4) ml (a total of 16,000 cells) were then seeded into 6-well plates in the presence of the indicated amount of Myc-Max compound. In all cases, 10058-F4 was included as a reference compound. Daily cell counts were performed manually in triplicate on a hemacytometer using trypan blue exclusion. Viabilities exceeded 85% throughout the course of the experiment.
Each compound was initially tested for its ability to inhibit the growth of the HL60 human promyelocytic leukemia cell line, which expresses high levels of c-Myc as a result of gene amplification (Park S—H, et al. Methods Mol Biol 2004; 261:161-165 (2004)). […]

c-Myc-Max(S) heterodimer = target: T1, c-Myc-Max(S) heterodimer (Homo sapiens, UniProt P01106); experiment: electrophoretic mobility shift assay (EMSA), E-box DNA binding; assay type: biochemical; details: 60 nM each protein, 10 nM oligonucleotide
T1 construct: human Myc residues 353-439 with a GGCD extension at the C terminus; His6 (TEV-cleavable) (cleaved yes); made in house; host or cells: E. coli BL21DE3(plysS) for c-Myc; E. coli M15(pRep4) for Max
T1 sequence (P01106 368-454, one chain of several): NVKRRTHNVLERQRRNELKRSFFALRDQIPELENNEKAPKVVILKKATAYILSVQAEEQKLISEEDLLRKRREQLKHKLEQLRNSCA
Procedure: (§1) Equivalent amounts of nuclear extracts were incubated with the indicated concentrations of the compounds depicted in FIGS. 1-3. Following precipitation of the complexes with an anti-Max antibody, the total amount of associated c-Myc was detected by immunoblotting (top panel). As a control, the lower portion of the blot was probed with an anti-Max antibody (bottom panel). FIGS. 4B, 4C and 4D show EMSAs results. Recombinant c-Myc353-439 (which encodes the complete bHLH-ZIP dimerization domain) and full-length Max(S) were purified to homogeneity from E. coli and used at a final concentration of 60 nM in the presence of the indicated concentration of compound.
Electrophoretic mobility shift Assays (EMSAs). Experiments were performed on 8% polyacrylamide:bis-acrylamide (80:1) gels in 0.5×TBE. […]
and was synthesized by Integrated DNA Technologies Inc (Coralville, Iowa). […] Data were analyzed with BioRad Quantity One software.
The second method used to gauge the effects of 10058-F4 and its analogs on c-Myc-Max complexes relied on the use of a simple, three component electrophoretic mobility shift assay (EMSA). […] The ability of the resultant heterodimer to bind a double-stranded target oligonucleotide containing a consensus E-box motif was then assessed by PAGE. […]

c-Myc-Max complexes = target: T2, c-Myc-Max complexes (Homo sapiens, UniProt P01106); experiment: co-immunoprecipitation of c-Myc and Max from HL60 nuclear extracts; assay type: biochemical; details: 30° C. for 30 min
T2 construct: endogenous in cells; host or cells: HL60 nuclear extract
T2 sequence (P01106 whole entry, one chain of several): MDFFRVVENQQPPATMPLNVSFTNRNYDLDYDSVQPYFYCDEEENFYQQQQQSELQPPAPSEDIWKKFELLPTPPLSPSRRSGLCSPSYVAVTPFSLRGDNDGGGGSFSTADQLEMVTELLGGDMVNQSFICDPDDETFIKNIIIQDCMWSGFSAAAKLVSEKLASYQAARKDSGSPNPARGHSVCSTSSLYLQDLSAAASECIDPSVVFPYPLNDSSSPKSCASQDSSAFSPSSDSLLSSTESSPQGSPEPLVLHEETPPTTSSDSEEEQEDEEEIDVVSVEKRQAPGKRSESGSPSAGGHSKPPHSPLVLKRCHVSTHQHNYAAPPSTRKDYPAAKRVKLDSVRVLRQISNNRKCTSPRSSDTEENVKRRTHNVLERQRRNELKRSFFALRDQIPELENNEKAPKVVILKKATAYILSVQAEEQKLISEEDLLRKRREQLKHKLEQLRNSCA
Procedure: as §1
Nuclei from HL60 cells were prepared essentially as described previously (17). Briefly, approximately 4×10^7 washed nuclei were resuspended in 1 ml of ice cold buffer F, which contained 150 mM NaCl; 10 mM Tris-HCl, pH 7.1; 30 mM sodium pyrophosphate; 5 μM ZnCl2; 0.1% Nonidet P-40; 0.1 mM Na3VO4; 1 mM PMSF; 2.5 U/ml each of pepstatin, leupeptin, and approtinin. All reagents were from Sigma-Aldrich (St. Louis, Mo.). […]
10058-F4 analogs interfere directly with c-Myc-Max heterodimerization and DNA binding. […] To address this, the effect of each compound on c-Myc-Max association was determined in vitro by two different methods. […] The total amount of co-precipitating c-Myc protein was then assessed by immunoblotting. […]

| Compound | activity in HL60 cells compared with 10058-F4 ([1]; 10058-F4 in parallel) | IC50 ([1]; Homo sapiens, HL-60, 120 h, dose-response profiles on day 5 following addition of compound, read-out: ID50, HL60 cell growth) | inhibition of E-box DNA binding by c-Myc-Max(S) (c-Myc-Max(S) heterodimer) | dissociation of c-Myc from Max (co-IP with anti-Max antibody) (c-Myc-Max complexes) |
| --- | --- | --- | --- | --- |
| CC(C)c1ccc(/C=C2\SC(=S)N(CN3CCCCC3)C2=O)cc1 [Compound 28RH-NCN-1] | activities comparable to that of 10058-F4 | – | – | – |
| CCc1ccc(C=C2SC(=S)NC2=O)cc1 [Compound 10058-F4, (Z,E)-5-(4-ethylbenzylidene)-2-thioxothiazolidin-4-one] | – | 51 µM | dose-dependent, although variable, inhibition | promoted the dissociation of c-Myc from Max |

— US7872027B2, “Low molecular weight Myc-max inhibitors” (University of Pittsburgh - Of the Commonwealth System of …, priority 2006, dated 2011)
